Results from ChEMBL document CHEMBL4602663, “Isocadiolides A-H: Polybrominated Aromatics from a Synoicum sp. Ascidian” (J Nat Prod, 2020).

Tests used:
[1] = test system: Staphylococcus aureus; experiment: Antibacterial activity against Staphylococcus aureus ATCC 6538P assessed as reduction in microbial growth; format: functional
[2] = test system: Enterococcus faecalis; experiment: Antibacterial activity against Enterococcus faecalis ATCC 19433 assessed as reduction in microbial growth; format: functional
[3] = test system: Enterococcus faecium; experiment: Antibacterial activity against Enterococcus faecium ATCC 19434 assessed as reduction in microbial growth; format: functional
[4] = test system: Salmonella enterica; experiment: Antibacterial activity against Salmonella enterica ATCC 14028 assessed as reduction in microbial growth; format: functional
[5] = test system: Proteus hauseri; experiment: Antibacterial activity against Proteus hauseri NBRC 3851 assessed as reduction in microbial growth; format: functional
[6] = test system: Klebsiella pneumoniae; experiment: Antibacterial activity against Klebsiella pneumoniae ATCC 10031 assessed as reduction in microbial growth; format: functional
[7] = biological target: T1, Sortase A (Staphylococcus aureus, UniProt Q9S446); experiment: Inhibition of Staphylococcus aureus sortase A
T1 sequence (Q9S446 whole entry): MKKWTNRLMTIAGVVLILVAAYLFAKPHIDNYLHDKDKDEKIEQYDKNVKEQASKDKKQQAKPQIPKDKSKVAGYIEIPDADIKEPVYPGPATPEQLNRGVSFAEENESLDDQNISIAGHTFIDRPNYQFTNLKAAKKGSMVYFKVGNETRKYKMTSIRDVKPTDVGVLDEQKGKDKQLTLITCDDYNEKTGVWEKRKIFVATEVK

[8] = biological target: Isocitrate lyase (Candida albicans, UniProt Q9P8Q7); experiment: Inhibition of Candida albicans ICL assessed as reduction in glyoxylate phenylhydrazone formation using M threo-DL(+)isocitrate as substrate incubated for 30 mins by spectrophotometric method
[9] = test system: K562; experiment: Cytotoxicity against human K562 cells assessed as reduction in cell viability after 72 hrs by sulforhodamine B assay; format: functional, cell-based; settings: K562, 72 h
[10] = test system: A549; experiment: Cytotoxicity against human A549 cells assessed as reduction in cell viability after 72 hrs by sulforhodamine B assay; format: functional, cell-based; settings: A549, 72 h

Sequence of Isocitrate lyase (Q9P8Q7 whole entry): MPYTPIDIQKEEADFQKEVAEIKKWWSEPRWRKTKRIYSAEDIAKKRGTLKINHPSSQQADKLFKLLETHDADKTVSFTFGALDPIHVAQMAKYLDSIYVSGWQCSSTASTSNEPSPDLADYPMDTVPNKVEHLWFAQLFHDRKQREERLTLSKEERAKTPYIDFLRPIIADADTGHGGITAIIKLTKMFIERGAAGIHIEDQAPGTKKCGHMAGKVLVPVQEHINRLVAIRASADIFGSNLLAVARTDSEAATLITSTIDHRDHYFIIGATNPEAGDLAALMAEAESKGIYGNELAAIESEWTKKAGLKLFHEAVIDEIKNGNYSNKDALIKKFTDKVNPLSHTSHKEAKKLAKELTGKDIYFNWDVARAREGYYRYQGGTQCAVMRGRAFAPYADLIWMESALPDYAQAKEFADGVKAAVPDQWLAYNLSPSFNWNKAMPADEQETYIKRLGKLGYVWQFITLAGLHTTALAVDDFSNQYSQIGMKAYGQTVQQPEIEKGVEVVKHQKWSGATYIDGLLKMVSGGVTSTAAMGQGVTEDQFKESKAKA

Structure (SMILES)	MIC [1] [µg/mL]	MIC [2] [µg/mL]	MIC [3] [µg/mL]	MIC [4] [µg/mL]	MIC [5] [µg/mL]	MIC [6] [µg/mL]	IC50 [7] [µM]	IC50 [8] [µM]	IC50 [9] [µM]	IC50 [10] [µM]
COc1c(Br)cc([C@H](O)C2=C(c3ccc(O)c(Br)c3)/C(=C/c3cc(Br)c(O)c(Br)c3)OC2=O)cc1Br	2	8	> 128	4	2	> 128	> 159	> 159	–	–
COc1c(Br)cc([C@H](O)C2=C(c3cc(Br)c(O)c(Br)c3)/C(=C/c3ccc(O)c(Br)c3)OC2=O)cc1Br	8	32	> 128	8	4	> 128	> 159	> 159	–	–
O=C(O)CC[N+](=O)[O-]	–	–	–	–	–	–	–	17	–	–
COC(=O)C1=C(c2cc(Br)c(O)c(Br)c2)[C@](OC)(c2cc(Br)c(O)c(Br)c2)O[C@@]1(C(=O)OC)c1cc(Br)c(O)c(Br)c1	64	> 128	> 128	> 128	> 128	> 128	> 133	104	> 10	> 10
COC(=O)C1=C(c2cc(Br)c(O)c(Br)c2)C(=O)[C@](c2ccc(O)c(Br)c2)(c2cc(Br)c(O)c(Br)c2)C1=O	16	> 128	> 128	64	64	> 128	70	49	> 10	> 10
COC(=O)C1=C(c2cc(Br)c(O)c(Br)c2)C(=O)C(c2cc(Br)c(O)c(Br)c2)(c2cc(Br)c(O)c(Br)c2)C1=O	16	64	> 128	64	> 128	> 128	67	22	> 10	> 10
COc1ccc(/C=C2\OC(=O)C([C@@H](O)c3cc(Br)c(OC)c(Br)c3)=C2c2cc(Br)c(O)c(Br)c2)cc1Br	32	64	> 128	64	8	> 128	> 156	150	–	–
COC(=O)C1=C(c2ccc(O)c(Br)c2)C(=O)[C@](c2ccc(O)c(Br)c2)(c2cc(Br)c(O)c(Br)c2)C1=O	32	> 128	> 128	64	8	> 128	102	47	> 10	> 10
COc1ccc(C[C@@]2(O)OC(=O)C([C@@H](O)c3cc(Br)c(OC)c(Br)c3)=C2c2cc(Br)c(O)c(Br)c2)cc1Br	16	64	> 128	16	16	> 128	> 153	63	> 10	> 10
COC(=O)C1=C(c2cc(Br)c(O)c(Br)c2)C(=O)[C@](OC)(c2ccc(O)c(Br)c2)O[C@]1(OC)c1cc(Br)c(O)c(Br)c1	64	> 128	> 128	> 128	> 128	> 128	> 145	127	> 10	> 10
COC(=O)C1=C(c2cc(Br)c(O)c(Br)c2)[C@](OC)(c2ccc(O)c(Br)c2)O[C@@]1(C(=O)OC)c1cc(Br)c(O)c(Br)c1	64	8	> 128	64	64	> 128	> 145	> 145	> 10	> 10
O=C1C=C(c2cc(Br)c(O)c(Br)c2)C(=O)C1(c1cc(Br)c(O)c(Br)c1)c1cc(Br)c(O)c(Br)c1	4	> 128	> 128	64	> 128	> 128	88	34	> 10	> 10
O=C(O)C1=C(c2ccc(O)c(Br)c2)C(=O)C(c2cc(Br)c(O)c(Br)c2)(c2cc(Br)c(O)c(Br)c2)C1=O	> 128	> 128	> 128	> 128	> 128	> 128	> 159	54	> 10	> 10
CC1(C)S[C@@H]2[C@H](NC(=O)[C@H](N)c3ccccc3)C(=O)N2[C@H]1C(=O)O [AMPICILLIN]	0.03	0.5	0.5	0.06	0.03	–	–	–	–	–
COc1ccc2cc3[n+](cc2c1OC)CCc1cc2c(cc1-3)OCO2 [BERBERINE CHLORIDE]	–	–	–	–	–	–	102	–	–	–
O=C1O/C(=C\c2cc(Br)c(O)c(Br)c2)C(c2cc(Br)c(O)c(Br)c2)=C1C(=O)c1cc(Br)c(O)c(Br)c1 [CADIOLIDE B]	64	> 128	> 128	> 128	> 128	> 128	103	61	–	–
O=C1O/C(=C\c2ccc(O)c(Br)c2)C(c2ccc(O)c(Br)c2)=C1C(=O)c1cc(Br)c(O)c(Br)c1 [CADIOLIDE C]	32	> 128	> 128	64	> 128	> 128	59	17	–	–
O=C1O/C(=C\c2ccc(O)c(Br)c2)C(c2cc(Br)c(O)c(Br)c2)=C1C(=O)c1cc(Br)c(O)c(Br)c1 [CADIOLIDE D]	64	> 128	> 128	> 128	> 128	> 128	34	11	–	–
O=C1O/C(=C\c2cc(Br)c(O)c(Br)c2)C(c2ccc(O)c(Br)c2)=C1C(=O)c1cc(Br)c(O)c(Br)c1 [CADIOLIDE E]	> 128	> 128	> 128	> 128	> 128	> 128	> 162	27	–	–
O=C1C=C(c2cc(Br)c(O)c(Br)c2)/C(=C/c2cc(Br)c(O)c(Br)c2)O1 [RUBROLIDE A]	32	> 128	> 128	32	16	> 128	216	> 216	–	–
CN(C)[C@@H]1C(O)=C(C(N)=O)C(=O)[C@@]2(O)C(O)=C3C(=O)c4c(O)cccc4[C@@](C)(O)[C@H]3C[C@@H]12 [TETRACYCLINE]	–	–	–	–	–	0.25	–	–	–	–
